{
  "source": "patent US20240239789A1",
  "about": "“SALTS OF 2-BRO[…] DIETHYLAMIDE” (Ceruvia Lifesciences LLC, priority 2022, published 2024)",
  "assay_type_in_all_cases": "physicochemical",
  "key": {"[1]": {"test": "Thermogravimetric analysis (TGA) weight loss after drying", "conditions": "after drying in vacuo at 50° C. for 18 hours; between 25° C. and 200° C.; heating rate 20° C./min", "method": "TGA data were collected on a TA Instruments Discovery TGA equipped with a 25-position auto-sampler. The instrument was calibrated using a certified weight and certified Alumel and Nickel for temperature. A predefined amount of the sample, ca. 5 mg, was loaded into a pre-tared aluminum ACCUPIK™ sample pan and platinum crucible and was heated at 20° C./min from ambient (room) temperature to 400° C. unless otherwise stated. A nitrogen purge at 25 mL/min was maintained over the sample. The instrument control, data acquisition and analysis were performed with TA Instruments TRIOS software v4.1.1.33073."}, "[2]": {"test": "Dynamic vapor sorption (DVS) moisture sorption analysis", "method": "(§1) Sorption isotherms were obtained using a Hiden Isochema moisture sorption analyser (model IGAsorp), controlled by IGAsorp Systems Software V6.50.48. The sample was maintained at a constant temperature (25° C.) by the instrument controls. The humidity was controlled by mixing streams of dry and wet nitrogen, with a total flow of 250 mL/min. The instrument was verified for relative humidity content by measuring three calibrated Rotronic salt solutions (10-50-88%). The weight change of the sample was monitored as a function of humidity by a microbalance (accuracy +/−0.005 mg). A defined amount of sample was placed in a tared mesh stainless steel basket under ambient conditions. A full experimental cycle typically consisted of three scans (sorption, desorption and sorption) at a constant temperature (25° C.) and 10% RH intervals over a 0-90% range (60 minutes for each humidity level)."}, "[3]": {"test": "XRPD analysis ex DVS following equilibration at extremes of humidity", "conditions": "0% and 90% relative humidity", "source_text": "The crystalline salts of 2-Br-LSD were characterized by their powder X-ray diffraction patterns. Powder X-ray diffractograms of the crystalline salts of 2-Br-LSD described herein were collected on a PANalytical X'pert PRO diffractometer using Cu Kα radiation (45 kV, 40 mA), θ-θ goniometer, focusing mirror, divergence slit (½″), soller slits at both incident and divergent beam (4 mm) and a PIXcel detector. Data was presented using X'Pert Data Viewer, version 1.2d. XRPD patterns were acquired under ambient conditions via a transmission foil sample stage (polyimide—Kapton®, 12.7 μm thickness film). The data collection range was 2.994-35° 2θ with a continuous scan speed of 0.202004° s^−1. Lists of major XRPD peaks (relative intensity ≥10%) for the crystalline salts of the present disclosure are tabulated below.\nas §1, with “A defined amount of sample was placed in a tared mesh stainless steel basket under ambient conditions. A full experimental cycle typically consisted of three scans (sorption, desorption and sorption) at a constant temperature (25° C.) and 10% RH intervals over a 0-90% range (60 minutes for each humidity level).” left out"}},
  "data": [
    {"smiles": "Br.CCN(CC)C(=O)[C@@H]1C=C2c3cccc4[nH]c(Br)c(c34)C[C@H]2N(C)C1", "note": "[2-Br-LSD hydrobromide (Form 1), 2-bromolysergic acid diethylamide hydrobromide]", "values": [
      {"measurement": "weight loss upon thermogravimetric analysis", "setting": "[1]", "value": "less than 1%"},
      {"measurement": "weight change upon dynamic vapor sorption analysis", "setting": "[2]; 25° C., RH range 0-90%, 10% RH intervals, 60 minutes for each humidity level", "value": "less than 0.5%"},
      {"measurement": "water retained at 0% RH (reversibility of water uptake)", "setting": "[2]; 25° C., desorption to 0% RH", "value": "no water was retained"},
      {"measurement": "further weight increase between 60% RH and 90% RH", "setting": "[2]; 25° C., initial sorption cycle, between 60% RH and 90% RH", "value": 0.2, "unit": "wt %"},
      {"measurement": "water gained during initial sorption cycle up to 60% RH", "setting": "[2]; 25° C., initial sorption cycle, up to 60% RH", "value": 0.21, "unit": "%"},
      {"measurement": "total water uptake", "setting": "[2]; 25° C., initial sorption cycle, up to 90% RH", "value": 0.4, "unit": "%"},
      {"measurement": "hygroscopicity", "setting": "[2]; definition in b65: TGA <1% weight loss and DVS <about 0.5% weight change", "value": "non-hygroscopic"},
      {"measurement": "solid form change following equilibration at extremes of humidity", "setting": "[3]", "value": "no form change occurred"}
    ]}
  ]
}
